Read-outs that look alike come from different tables or passages of the source.

In one experiment the target is T1, NAMPT (Homo sapiens, UniProt P43490).
T1 construct: His tag; host or cells: E. coli
The experiment is described as follows: Biochemical inhibition assay: NAMPT enzymatic reaction, NMN quantified by mass spectrometry. The following applies: read-out: Biochem IC50. In short, it runs like this: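 Inhibition of E. coli-expressed His-tagged human NAMPT, measured as NMN formation by mass spectrometry after a 30 min room-temperature reaction containing 1 μM NAM, 100 μM PRPP and 2.5 mM ATP.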

In another experiment the test system is A2780 cells. The experiment is described as follows: In-vitro cell proliferation assay (SRB), A2780 cells. It counts as cell-based. Particulars: Homo sapiens, A2780, 72 h, A2780 cells, 72 hours, read-out: A2780 IC50. The method, boiled down:
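Viable cells measured by SRB staining after 6% TCA fixation, absorbance 570 nm. Media-only background subtracted; % inhibition derived at two compound concentrations.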

T1 sequence (P43490 whole entry): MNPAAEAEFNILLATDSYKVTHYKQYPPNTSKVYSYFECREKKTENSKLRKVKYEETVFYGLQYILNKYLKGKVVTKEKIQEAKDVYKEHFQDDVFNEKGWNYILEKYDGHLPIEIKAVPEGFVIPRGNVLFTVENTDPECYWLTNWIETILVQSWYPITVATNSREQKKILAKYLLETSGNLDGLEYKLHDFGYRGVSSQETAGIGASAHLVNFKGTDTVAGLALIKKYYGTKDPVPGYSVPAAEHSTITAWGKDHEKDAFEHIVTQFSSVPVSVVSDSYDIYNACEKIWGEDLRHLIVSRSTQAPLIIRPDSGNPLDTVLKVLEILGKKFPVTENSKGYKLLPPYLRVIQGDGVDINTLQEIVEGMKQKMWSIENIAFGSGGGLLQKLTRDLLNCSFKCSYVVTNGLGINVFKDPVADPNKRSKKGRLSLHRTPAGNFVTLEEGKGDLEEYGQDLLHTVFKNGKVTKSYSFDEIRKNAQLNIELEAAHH

A word on the IC50: it is the concentration at which inhibition is half-maximal. Consider `O=C(NCc1ccc(S(=O)(=O)Nc2ccccc2N2CCOCC2)cc1)c1cc2cnccc2[nH]1` [N-[(4-{[2-(morpholin-4-yl)phenyl]sulfamoyl}phenyl)methyl]-1H-pyrrolo[3,2-c]pyridine-2-carboxamide], for which the IC50 turned out to be 19 nM at NAMPT (NAMPT enzymatic reaction) and 17 nM with A2780 cells (SRB assay).
As to `CCOc1cccc(S(=O)(=O)c2ccc(CNC(=O)c3ccc4nccn4c3)cc2)c1`, the concentration for half-maximal inhibition (IC50) is 5 nM on NAMPT (NAMPT enzymatic reaction) and 3.1 nM in the experiment with A2780 cells (SRB).
For `COc1cccc(Cl)c1S(=O)(=O)c1ccc(CNC(=O)c2ccc3nccn3c2)cc1` [N-({4-[(2-chloro-6-methoxybenzene)sulfonyl]phenyl}methyl)imidazo[1,2-a]pyridine-6-carboxamide], the IC50 at NAMPT (NAMPT enzymatic reaction) stood at 20.2 nM; with A2780 cells (SRB), 25.8 nM.
As to `O=C(NCc1ccc(S(=O)(=O)c2ccccc2CN2CCOCC2)cc1)c1cc2cnccc2[nH]1` [N-[(4-{[2-(morpholin-4-ylmethyl)benzene]sulfonyl}phenyl)methyl]-1H-pyrrolo[3,2-c]pyridine-2-carboxamide], the IC50 on NAMPT (NAMPT enzymatic reaction) amounted to 34 nM; with A2780 cells (SRB assay) it was 6 nM.
As to `COc1ccc(F)cc1S(=O)(=O)c1ccc(CNC(=O)c2cnc3nccn3c2)cc1`, the IC50 on NAMPT (NAMPT enzymatic reaction) turned out to be 7.3 nM; in the experiment on A2780 cells (SRB), 26.1 nM.
For `Cc1cc(-n2cccn2)ccc1S(=O)(=O)c1ccc(CNC(=O)c2ccc3nccn3c2)cc1` [N-[(4-{[2-methyl-4-(1H-pyrazol-1-yl)benzene]sulfonyl}phenyl)methyl]imidazo[1,2-a]pyridine-6-carboxamide], the values for the concentration for half-maximal inhibition (IC50) at NAMPT (NAMPT enzymatic assay) and in the experiment on A2780 cells (SRB) were 7.99 nM and 3.6 nM, respectively.
Regarding `O=C(NCc1ccc(S(=O)(=O)N2CCCCC2)cc1)c1ccc2nc[nH]c2c1` [N-{[4-(piperidine-1-sulfonyl)phenyl]methyl}-1H-1,3-benzodiazole-5-carboxamide], the IC50 on NAMPT (NAMPT enzymatic reaction) worked out at 21 nM; in the experiment on A2780 cells (SRB assay) it was 10 nM.
With `O=C(NCc1ccc(S(=O)(=O)c2ccccc2)cc1)c1n[nH]c2ncccc12` [N-{[4-(benzenesulfonyl)phenyl]methyl}-1H-pyrazolo[3,4-b]pyridine-3-carboxamide], the results for the half-maximal inhibitory concentration (IC50) on NAMPT (NAMPT enzymatic reaction) and with A2780 cells (SRB assay) were 1270 nM and above 10000 nM, respectively.
On the same counts, the results for `O=C(NCc1ccc(S(=O)(=O)N2CCCCC2)cc1)c1cc2cnccc2o1` [N-{[4-(piperidine-1-sulfonyl)phenyl]methyl}furo[3,2-c]pyridine-2-carboxamide] are 17 nM and 286 nM.
Regarding `COc1cc(F)ccc1S(=O)(=O)c1ccc(CNC(=O)c2cnc3[nH]ncc3c2)cc1` [N-({4-[(4-fluoro-2-methoxybenzene)sulfonyl]phenyl}methyl)-1H-pyrazolo[3,4-b]pyridine-5-carboxamide], the IC50 was 159 nM at NAMPT (NAMPT enzymatic reaction) and 74.2 nM in the experiment with A2780 cells (SRB).
Taken in the same sequence, the figures for `COc1ccc(OC)c(S(=O)(=O)c2ccc(CNC(=O)c3ccc4nccn4c3)cc2)c1` [N-({4-[(2,5-dimethoxybenzene)sulfonyl]phenyl}methyl)imidazo[1,2-a]pyridine-6-carboxamide] were 20.2 nM and 12.8 nM.
Regarding `COc1ccc(F)cc1S(=O)(=O)c1ccc(CNC(=O)c2cc3cnccc3[nH]2)cc1` [N-({4-[(5-fluoro-2-methoxybenzene)sulfonyl]phenyl}methyl)-1H-pyrrolo[3,2-c]pyridine-2-carboxamide], the figures for the IC50 on NAMPT (NAMPT enzymatic reaction) and in the experiment on A2780 cells (SRB assay) were 5 nM and 3 nM, respectively.
Taken in the same sequence, the figures for `O=C(NCc1ccc(S(=O)(=O)N2CCCCC2)cc1)c1ccc2cnccc2n1` [N-{[4-(piperidine-1-sulfonyl)phenyl]methyl}-1,6-naphthyridine-2-carboxamide] were 12 nM and 10 nM.
`O=C(NCc1ccc(S(=O)(=O)c2cnc(N3CCCC3)s2)cc1)c1ccc2nccn2c1` [N-({4-[2-(pyrrolidin-1-yl)-1,3-thiazole-5-sulfonyl]phenyl}methyl)imidazo[1,2-a]pyridine-6-carboxamide]: the IC50 was determined as 2.4 nM at NAMPT (NAMPT enzymatic assay) and 0.4 nM with A2780 cells (SRB).
For the compound `CCCOc1ccc(S(=O)(=O)c2ccc(CNC(=O)c3cnc4nccn4c3)cc2)cc1`, the IC50 on NAMPT (NAMPT enzymatic reaction) was found to be 2.2 nM; with A2780 cells (SRB) it was 6.1 nM.

The values are drawn from patent US12336981B2, “Compounds and compositions for the inhibition of NAMPT” (Valo Health, Inc., priority 2010, dated 2025).
